# Where two headings read alike, the source gives them in different places.
# What was measured:
# [1] = molecular target: T1, human recombinant Monoacylglycerol Lipase (Homo sapiens, UniProt Q99685); assay: MAGL enzymatic assay (IC50; 7-HCA substrate added at T=0 min or T=30 min); type: biochemical; conditions: geometric mean of 2-5 determinations unless otherwise indicated
# T1 sequence (Q99685 1-303): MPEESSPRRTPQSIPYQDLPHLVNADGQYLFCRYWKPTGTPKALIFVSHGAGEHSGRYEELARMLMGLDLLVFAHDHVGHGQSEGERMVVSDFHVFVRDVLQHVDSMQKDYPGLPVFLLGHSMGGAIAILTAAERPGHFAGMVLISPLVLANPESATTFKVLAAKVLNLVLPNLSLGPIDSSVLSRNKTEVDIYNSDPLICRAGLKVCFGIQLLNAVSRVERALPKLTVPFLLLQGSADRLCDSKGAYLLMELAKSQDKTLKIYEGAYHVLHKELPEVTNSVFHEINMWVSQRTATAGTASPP
# [2] = molecular target: T1, human recombinant Monoacylglycerol Lipase; assay: MAGL inactivation (kinact/KI from enzyme progress curves, T=0 min protocol); conditions: from plot of Kobs vs. compound concentration, geometric mean of 2-5 determinations (b: ≥6)
# [3] = MAGL (T = 30 min) IC50, substrate 7-HCA added after 30 minute incubation (T=30 min)
# [4] = substrate 7-HCA added immediately (T=0 min), read-out: MAGL (T = 0 min) IC50
Compound,"IC50 [1, 3]","IC50 [1, 4]",MAGL kinact/KI [2]
"O=C(O[C@H](CO)C(F)(F)F)N1CCC2(CC1)CC(n1cc(Cl)cn1)CO2 (single isomer, unassigned) [Example 22]",4 nM,49 nM,9780 1/s per M
"Cc1cnn(C2COC3(CCN(C(=O)O[C@H](CO)C(F)(F)F)CC3)C2)c1 (single isomer, unassigned) [Example 24]",12 nM,115 nM,7840 1/s per M
"O=C(O[C@H](CO)C(F)(F)F)N1CCC2(CC1)CC(c1ccccc1F)CO2 (single isomer, unassigned) [Example 25]",2 nM,20 nM,25500 1/s per M
"O=C(O[C@H](CO)C(F)(F)F)N1CCC2(CC1)CC(c1ccccc1F)CO2 (single isomer, unassigned) [Example 26]",1 nM,8 nM,87700 1/s per M
"N#Cc1cc(C2COC3(CCN(C(=O)O[C@H](CO)C(F)(F)F)CC3)C2)ccc1F (single isomer, unassigned) [Example 28]",3 nM,27 nM,16900 1/s per M
"N#Cc1ccc(F)c(C2COC3(CCN(C(=O)O[C@H](CO)C(F)(F)F)CC3)C2)c1 (single isomer, unassigned) [Example 29]",17 nM,184 nM,3250 1/s per M
"N#Cc1ccc(F)c(C2COC3(CCN(C(=O)O[C@H](CO)C(F)(F)F)CC3)C2)c1 (single isomer, unassigned) [Example 30]",4 nM,54 nM,14400 1/s per M
"N#Cc1ccc(C2COC3(CCN(C(=O)O[C@H](CO)C(F)(F)F)CC3)C2)cc1 (single isomer, unassigned) [Example 31]",4 nM,33 nM,8060 1/s per M
"O=C(O[C@H](CO)C(F)(F)F)N1CCC2(CC1)CC(c1c(F)cccc1F)CO2 (single isomer, unassigned) [Example 32]",0.4 nM,5 nM,233000 1/s per M
"O=C(O[C@H](CO)C(F)(F)F)N1CCC2(CC1)CC(c1ccc(F)cc1F)CO2 (single isomer, unassigned) [Example 33]",1 nM,10 nM,53400 1/s per M
"O=C(O[C@H](CO)C(F)(F)F)N1CCC2(CC1)CC(c1ccc(F)cc1)CO2 (single isomer, unassigned) [Example 34]",4 nM,48 nM,7920 1/s per M
"O=C(O[C@H](CO)C(F)(F)F)N1CCC2(CC1)CC(c1cc(C(F)F)ccn1)CO2 (single isomer, unassigned) [Example 35]",3 nM,31 nM,23000 1/s per M
"O=C(O[C@H](CO)C(F)(F)F)N1CCC2(CC1)CC(c1ccc(C(F)F)nc1)CO2 (single isomer, unassigned) [Example 36]",27 nM,239 nM,1440 1/s per M
"O=C(O[C@H](CO)C(F)(F)F)N1CCC2(CC1)CC(c1ccc(C(F)F)nc1)CO2 (single isomer, unassigned) [Example 37]",8 nM,57 nM,3840 1/s per M
"N#Cc1ccc(C2COC3(CCN(C(=O)O[C@H](CO)C(F)(F)F)CC3)C2)nc1 (single isomer, unassigned) [Example 38]",24 nM,200 nM,1610 1/s per M
"O=C(O[C@H](CO)C(F)(F)F)N1CCC2(CC1)CC(c1ccc(C(F)F)cn1)CO2 (single isomer, unassigned) [Example 39]",5 nM,43 nM,5180 1/s per M
"O=C(O[C@H](CO)C(F)(F)F)N1CCC2(CC1)CC(c1ccc(C(F)(F)F)cn1)CO2 (single isomer, unassigned) [Example 40]",3 nM,9 nM,21800 1/s per M
"O=C(O[C@H](CO)C(F)(F)F)N1CCC2(CC1)CC(c1ccccn1)CO2 (single isomer, unassigned) [Example 41]",7 nM,76 nM,13200 1/s per M

Compound,"IC50 [1, 3]","IC50 [1, 4]",MAGL kinact/KI [2]
"CC(C)(C)c1ccn(C2COC3(CCN(C(=O)O[C@H](CO)C(F)(F)F)CC3)C2)n1 (single isomer, unassigned) [Example 52]",1 nM,4 nM,200000 1/s per M
"O=C(O[C@H](CO)C(F)(F)F)N1CCC2(CC1)CC(n1ccc(C(F)(F)F)n1)CO2 (single isomer, unassigned) [Example 53]",1 nM,9 nM,66900 1/s per M
"Cc1cn(C2COC3(CCN(C(=O)O[C@H](CO)C(F)(F)F)CC3)C2)nc1C (single isomer, unassigned) [Example 54]",4 nM,21 nM,26500 1/s per M
"O=C(O[C@H](CO)C(F)(F)F)N1CCC2(CC1)CC(n1ncc3ccccc31)CO2 (single isomer, unassigned) [Example 62]",1 nM,10 nM,18100 1/s per M
"O=C(O[C@H](CO)C(F)(F)F)N1CCC2(CCC(n3cc(C(F)(F)F)cn3)CO2)CC1 (single isomer, unassigned) [Example 69]",1 nM,10 nM,71900 1/s per M
"O=C(O[C@H](CO)C(F)(F)F)N1CCC2(CCC(n3cc(F)cn3)CO2)CC1 (single isomer, unassigned) [Example 70]",2 nM,22 nM,40400 1/s per M
"N#Cc1cccc(C2COC3(CCN(C(=O)O[C@H](CO)C(F)(F)F)CC3)C2)c1F (single isomer, unassigned) [Example 71]",3 nM,29 nM,17800 1/s per M
"N#Cc1ccc(C2COC3(CCN(C(=O)O[C@H](CO)C(F)(F)F)CC3)C2)c(F)c1 (single isomer, unassigned) [Example 72]",4 nM,32 nM,17000 1/s per M
"N#Cc1cccc(C2CCOC3(CCN(C(=O)O[C@H](CO)C(F)(F)F)CC3)C2)c1 (single isomer, unassigned) [Example 73]",3 nM,26 nM,8870 1/s per M
"O=C(O[C@H](CO)C(F)(F)F)N1CCC2(CCC(c3ccc(F)cn3)CO2)CC1 (single isomer, unassigned) [Example 74]",6 nM,69 nM,7140 1/s per M
"O=C(O[C@H](CO)C(F)(F)F)N1CCC2(CCC(n3cc(C(F)F)cn3)CO2)CC1 (single isomer, unassigned) [Example 75]",12 nM,115 nM,7370 1/s per M
"O=C(O[C@H](CO)C(F)(F)F)N1CCC2(CC1)CC(n1cc(C(F)(F)F)cn1)C2 [Example 1, (2R)-1,1,1-Trifluoro-3-hydroxypropan-2-yl 2-[4-(trifluoromethyl)-1H-pyrazol-1-yl]-7-azaspiro[3.5]nonane-7-carboxylate]",2 nM,12 nM,22200 1/s per M
"O=C(O[C@H](CO)C(F)(F)F)N1CCC2(CC1)CC(c1ccc(F)cn1)C2 [Example 2, (2R)-1,1,1-Trifluoro-3-hydroxypropan-2-yl 2-(5-fluoropyridin-2-yl)-7-azaspiro[3.5]nonane-7-carboxylate]",2 nM,21 nM,33800 1/s per M
"CN(C(=O)C1CCCC1)[C@H]1COC2(CCN(C(=O)O[C@H](CO)C(F)(F)F)CC2)C1 [Example 5, (2R)-1,1,1-Trifluoro-3-hydroxypropan-2-yl (3R)-3-[(cyclopentylcarbonyl)(methyl)amino]-1-oxa-8-azaspiro[4.5]decane-8-carboxylate]",7 nM,67 nM,5530 1/s per M
"CN([C@H]1COC2(CCN(C(=O)O[C@H](CO)C(F)(F)F)CC2)C1)S(=O)(=O)C(C)(C)C [Example 6, (2R)-1,1,1-Trifluoro-3-hydroxypropan-2-yl (3R)-3-[(tert-butylsulfonyl)(methyl)amino]-1-oxa-8-azaspiro[4.5]decane-8-carboxylate]",8 nM,98 nM,6630^b 1/s per M
"CN(C1CC2(CCN(C(=O)O[C@H](CO)C(F)(F)F)CC2)C1)S(=O)(=O)CC1CC1 [Example 18, (2R)-1,1,1-Trifluoro-3-hydroxypropan-2-yl 2-{[(cyclopropylmethyl)sulfonyl](methyl)amino}-7-azaspiro[3.5]nonane-7-carboxylate]",4 nM,52 nM,14900 1/s per M
"N#Cc1ccc([C@H]2COC3(CCN(C(=O)O[C@H](CO)C(F)(F)F)CC3)C2)cc1F [Example 27, (2R)-1,1,1-trifluoro-3-hydroxypropan-2-yl (3S)-3-(4-cyano-3-fluorophenyl)-1-oxa-8-azaspiro[4.5]decane-8-carboxylate]",3 nM,17 nM,22800 1/s per M
"CN(C(=O)C(C)(C)C)C1CC2(CCN(C(=O)O[C@H](CO)C(F)(F)F)CC2)C1 [Example 42, (2R)-1,1,1-trifluoro-3-hydroxypropan-2-yl 2-[(2,2-dimethylpropanoyl)(methyl)amino]-7-azaspiro[3.5]nonane-7-carboxylate]",0.4 nM,4 nM,309000 1/s per M

# Source: patent US10626125B2, “1,1,1-trifluoro-3-hydroxypropan-2-yl carbamate derivatives as MAGL inhibitors” (PFIZER INC., priority 2017, dated 2020)
